Assay [1] deals with T1, human Sirt4 (Homo sapiens, UniProt Q9Y6E7).
T1 construct: Human Sirt4_25–314 (Uniprot: Q9Y6E7); made in house
T1 sequence (Q9Y6E7 25-314): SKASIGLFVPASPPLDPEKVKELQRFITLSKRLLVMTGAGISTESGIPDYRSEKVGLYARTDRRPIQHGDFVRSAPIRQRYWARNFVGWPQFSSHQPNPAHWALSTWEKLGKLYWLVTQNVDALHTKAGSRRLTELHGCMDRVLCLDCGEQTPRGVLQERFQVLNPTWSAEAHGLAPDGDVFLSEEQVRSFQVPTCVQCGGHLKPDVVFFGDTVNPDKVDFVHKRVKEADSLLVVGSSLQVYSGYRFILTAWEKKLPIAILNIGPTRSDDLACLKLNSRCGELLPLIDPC
Nature of the assay: Sirt4-dependent deacetylation of acetylated Nnt397-peptide, LC-MS. It is filed as biochemical. The note with it: 200 μM, acetyl-lysine substrate. On the procedure: Initial screens were conducted with a high-throughput fluorescence-based assay using the substrate ZMAL (Z-Lys(Acetyl)-AMC) that was synthesized according to published procedures. For this human Sirt1_133–747, human Sirt2_25–389, human Sirt3_101–399 or Sirt3_118–395 were mixed with assay buffer (50 mM Tris/HCl, 137 mM NaCl, 2.7 mM KCl, 1 mM MgCl2, pH 8.0), β-NAD^+ (final assay concentration 500 μM), the substrate ZMAL (final assay concentration 10.5 μM from a 12.6 mM stock solution in DMSO) and the respective inhibitor in DMSO at various concentrations or DMSO as a control (final DMSO concentration 5–20% (v/v)). The mixture was incubated at 37 °C for 4 h, with agitation at 150 r.p.m. […] Then the fluorescence intensity was measured in a microplate reader (BMG Polarstar, λex 390 nm, λem 460 nm). The amount of inhibition was determined with respect to the mixture with only DMSO. IC50 values were determined with Graphpad Prism software using a non-linear regression to fit the dose–response curve. […] Peaks of acetylated and deacetylated substrate were quantified by absorption at 280 nm. […] The samples were then diluted to a peptide concentration of 5 μM with 0.1% (v/v) formic acid and analysed on an EASY-nLCII connected to a LTQ mass spectrometer (Thermo Fisher Scientific). […]

For assay [2], the system named is acetylation of the microtubule network in HeLa cells. The experiment in a line: immunofluorescence microscopy of acetylated microtubule network. It is filed as cell-based. The note with it: 4 h. The source says:
Cells were then stained with an anti-acetyl-α-tubulin antibody (Sigma-Aldrich, T6793) and then probed with a secondary Alexa 546 conjugated anti-mouse-antibody (Invitrogen). Nuclei were counterstained with DAPI (4',6-diamidino-2-phenylindole). Coverslips were mounted with FluoroMount (Sigma-Aldrich) and sealed with DPX Mountant (Sigma-Aldrich). Images of the mounted samples were acquired on a Leica DM500 microscope equipped with a Leica DFC 395 FX camera and HBO 100 W lamp[40]. The microscope was run with the Leica Application Suite 4.4.0 software. Chroma UV filter set (No. C40888) and Leica N2.1 filter set (No. 513832) were used for DAPI and Alexa 546 signal acquisition, respectively, with a HCX FL Fluotar 40x/0.75 (dry) objective. Further details about the equipment and the settings that were used to acquire the images are found in the Supplementary Methods section. Unprocessed images are found in Supplementary Fig. 9. […]
Immunocytochemistry equipment and settings. The signal of Alexa 546 and DAPI of the same region were acquired with constant illumination parameters as grayscale 8-bit 600 dpi tiff files (1600u 1200 pixels). Alexa 546 was acquired after 639.1 ms with a gamma factor of 0.65 without multiplying. The gain was set to 1. DAPI-stained images were acquired after about 20 ms with the same parameters as the one for Alexa 546 image acquisition. The temperature in the microscope room was kept at RT. Representative regions of each samples were processed with Adobe Photoshop CS2 to generate images in RGB mode by copying the appropriate original greyscale images to the blue (nuclei, DAPI) and the red (acetylated D-tubulin signal, Alexa 546) channel, respectively. As adjustment, a minimal background subtraction was applied on all images during processing in the same manner. The resolution was changed from 600 dpi (source images) to 450 dpi without resampling (Fig. 7 of the main article). LUT (CLUT) of grayscale images of the acetylated D-tubulin signal and of the DAPI signal are shown in Supplementary Fig. 8. […]

For assay [3], the system named is p53-Lys382-acetylation in U2OS cells. Nature of the assay: p53 acetylation after ultraviolet exposure, western blot. The format is cell-based. The note with it: 1 h pretreatment, 20 J cm^-2 UV, further 6 h. How it is done:
U2OS cells (ATCC accession no. HTB-96) were seeded and cultured until they reached 90% confluency. […] Cells were incubated for an additional 6 h in the presence of the inhibitor and then lysed in IPLS (50 mM Tris/HCl, 150 mM NaCl; 0.5 mM EDTA; 0.5% (v/v) NP-40; 1 × Complete Protease Inhibitors (Roche), pH 8.0) and resuspended in 1 × Laemmli Buffer. Samples were then separated on SDS–PAGE, transferred to a nitrocellulose membrane (Bio-Rad), blocked with non-fat dry milk (Roth, 5% (w/v), TBS, 0.1% (v/v) Tween 20) and probed with anti-acetyl-p53 K382 (Cell Signaling, #2522), anti-p53 DO.1 (Santa Cruz Biotechnology, sc-126) and anti-vinculin (Cell Signaling, #4650) as a loading control. Uncropped blots are shown in the Supplementary Fig. 10.
(In general: Immunoblotting shows a protein as a band on a membrane.)

Entries after “also recorded” stand apart in the source; their conditions may differ.

Regarding `Cc1cc(C)nc(SCC(=O)Nc2ncc(Cc3cccc4ccccc34)s2)n1` [SirReal2], the “effect on activity of Sirt4” value in assay [1] is “very little effect”. The “acetylation level of the microtubule network” value in assay [2] (20 μM) was “induces hyperacetylation; also recorded: partial increase; also recorded: hyperacetylation of the microtubule network”; in assay [2] (50 μM), “induces hyperacetylation”. The “acetylation of p53 (Lys382) after ultraviolet exposure” value in assay [3] is reported as “does not affect; also recorded: did not observe an increase; also recorded: does not alter”.

These data come from PMC4339887, “Selective Sirt2 inhibition by ligand-induced rearrangement of the active site” (Nature Communications, 2015).
